In ChEMBL document CHEMBL1201862, “PubChem BioAssay data set” (2004):
Calls of active or inactive are those of the source.

Legend:
[1] = nonselective StAR promoter luciferase inhibitors – cell-based, luminescence, luciferase reporter, counter-screen for LRH-1 inverse agonist project, dose response (AID 651969); type: functional
[2] = molecular target: Steroidogenic factor 1 (Homo sapiens, UniProt Q13285); experiment: Counterscreen for inverse agonists of the liver receptor homolog-1 (LRH-1; NR5A2): Luminescence-based cell-based high throughput dose response assay to identify inverse agonists of the Steroidogenic Factor 1 Nuclear Receptor (SF1; NR5A1).; type: functional
[3] = molecular target: Nuclear receptor subfamily 5 group A member 2 (Homo sapiens, UniProt O00482); type: functional, cell-based;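 further: HEK293T cells transfected with LRH-1 and a StAR promoter luciferase reporter; potency for inhibitors that lower LRH-1 driven reporter light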
[4] = molecular target: Protein Wnt-3a (Mus musculus, UniProt P27467); experiment: antagonism of Wnt3a pathway luciferase reporter – Wnt-LIGHT cells, luminescence, selectivity assay for Gli-SUFU antagonist project, dose response (AID 651570); type: functional; conditions: read-out: IC50_Mean;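 further: Wnt-LIGHT reporter cells stimulated with conditioned medium from Wnt3a-producing cells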
[5] = system: INS1; experiment: INS-1E survival protection against cytokine death – cell-based, luminescence, retest, dose response (AID 449756); type: functional; conditions: Rattus norvegicus;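 further: cell death triggered by IL-1 beta plus TNF-alpha plus IFN-gamma mixture; protective hits raise ATP signal compared with cytokine alone wells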
[6] = HEK-293T viability loss after treatment – luminescence, T-cell screen hits, cytotoxicity control for TCR NF-kB inhibitor project, dose response (AID 489026); type: functional, cell-based;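 further: cells exposed to compound about 14 hours before the viability readout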
[7] = THP-1 cell cytotoxicity, dose response, cytotoxicity control for non-replicating M. tuberculosis project (AID 489025); type: functional
[8] = bead-based luminescence quenchers, dual-tagged ARNT – biochemical, AlphaScreen, cherry-pick, artefact control for ARNT-TACC3 interaction inhibitor project, dose response (AID 651705); type: functional;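 further: AlphaScreen bead proximity signal that flags compounds interfering with the detection technology; potency reflects signal decrease which marks the compound as an assay artifact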
[9] = cells; type: functional
[10] = HepG2 cell cytotoxicity, dose response, cytotoxicity control for non-replicating M. tuberculosis project (AID 489018); type: functional; conditions: Mycobacterium tuberculosis
[11] = system: H9c2; experiment: cells; type: functional, cell-based; conditions: Rattus norvegicus, H9c2, Myocardium;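 further: confirmatory concentration-response retest of ultra-high-throughput screening hits for modulation of myocardial damage; cell death induced by hydrogen peroxide oxidative stress; compound pretreatment for 60 min then peroxide exposure for 2 h; potency is for protecting the cells against peroxide damage rather than for killing them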
[12] = Vero E6 cell cytotoxicity, dose response, cytotoxicity control for non-replicating M. tuberculosis project, secondary assay (AID 492998); type: functional, VeroE6; conditions: Vero C1008
[13] = molecular target: Nonstructural protein 1 (Influenza A virus, UniProt Q194T2); type: functional, Influenza A virus (A/California/07/2009(H1N1))
[14] = molecular target: T1, High affinity choline transporter 1 (Homo sapiens, UniProt Q9GZV3); experiment: human choline transporter blockers, potency – cell-based, 10-point CRC, membrane potential dye, dose response (AID 588401); type: functional;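 further: membrane potential dye fluorescence of choline-evoked depolarization via CHT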
T1 sequence (Q9GZV3 whole entry): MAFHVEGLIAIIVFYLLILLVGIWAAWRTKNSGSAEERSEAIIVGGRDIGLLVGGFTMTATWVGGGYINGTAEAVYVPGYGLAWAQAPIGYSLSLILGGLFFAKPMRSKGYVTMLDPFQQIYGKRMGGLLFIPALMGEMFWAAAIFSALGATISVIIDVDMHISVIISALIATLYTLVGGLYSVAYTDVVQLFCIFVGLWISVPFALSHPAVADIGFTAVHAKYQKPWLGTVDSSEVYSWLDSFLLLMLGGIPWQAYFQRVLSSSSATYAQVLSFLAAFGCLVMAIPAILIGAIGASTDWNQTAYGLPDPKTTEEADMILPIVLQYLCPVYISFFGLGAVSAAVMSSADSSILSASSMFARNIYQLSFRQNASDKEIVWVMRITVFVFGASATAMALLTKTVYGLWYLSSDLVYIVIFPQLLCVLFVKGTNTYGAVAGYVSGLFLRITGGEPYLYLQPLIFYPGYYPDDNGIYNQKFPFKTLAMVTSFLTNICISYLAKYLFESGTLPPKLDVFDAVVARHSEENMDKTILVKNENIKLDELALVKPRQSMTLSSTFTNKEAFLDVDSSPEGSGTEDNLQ

[15] = molecular target: T1, High affinity choline transporter 1; experiment: human choline transporter blockers, potency – cell-based, 5-point CRC, membrane potential dye, dose response (AID 504840); type: functional
[16] = molecular target: Melanocortin receptor 4 (Homo sapiens, UniProt P32245); type: functional, cell-based;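 further: Cell-based assay with luminescence read-out, confirmatory dose-response testing for agonist activity of biased ligands at MC4R; human U2OS cells with tagged receptor and beta-arrestin; potency of agonists that increase receptor coupling to beta-arrestin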
[17] = molecular target: T2, Polyadenylate-binding protein 1 (Homo sapiens, UniProt P11940); experiment: MLLE domain peptide-binding blockers, IC50 – biochemical, fluorescence polarization, FITC-PAM2 peptide, dose response (AID 602259); type: functional; conditions: read-out: IC50_Mean
[18] = molecular target: T2, Polyadenylate-binding protein 1; experiment: MLLE binding blockers, Cy5 peptide tracer – biochemical, fluorescence polarization, Cy5-PAM2 peptide, secondary, miRNA deadenylation inhibitor project, dose response (AID 602260); type: functional; conditions: read-out: IC50_Mean
[19] = fluconazole-exposed Candida albicans growth modulators – fluorescence, retest, confirmation (AID 2467); type: functional, cell-based
[20] = molecular target: T3, Short transient receptor potential channel 4 (Mus musculus, UniProt Q9QUQ5); experiment: block of DAMGO-driven TRPC4 calcium entry – cell-based, HEK293 TRPC4/mu-opioid, Fluo-4 calcium, dose response (AID 434942); type: functional;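 further: potency of inhibitors blocking the TRPC4 calcium response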
T3 sequence (Q9QUQ5 whole entry): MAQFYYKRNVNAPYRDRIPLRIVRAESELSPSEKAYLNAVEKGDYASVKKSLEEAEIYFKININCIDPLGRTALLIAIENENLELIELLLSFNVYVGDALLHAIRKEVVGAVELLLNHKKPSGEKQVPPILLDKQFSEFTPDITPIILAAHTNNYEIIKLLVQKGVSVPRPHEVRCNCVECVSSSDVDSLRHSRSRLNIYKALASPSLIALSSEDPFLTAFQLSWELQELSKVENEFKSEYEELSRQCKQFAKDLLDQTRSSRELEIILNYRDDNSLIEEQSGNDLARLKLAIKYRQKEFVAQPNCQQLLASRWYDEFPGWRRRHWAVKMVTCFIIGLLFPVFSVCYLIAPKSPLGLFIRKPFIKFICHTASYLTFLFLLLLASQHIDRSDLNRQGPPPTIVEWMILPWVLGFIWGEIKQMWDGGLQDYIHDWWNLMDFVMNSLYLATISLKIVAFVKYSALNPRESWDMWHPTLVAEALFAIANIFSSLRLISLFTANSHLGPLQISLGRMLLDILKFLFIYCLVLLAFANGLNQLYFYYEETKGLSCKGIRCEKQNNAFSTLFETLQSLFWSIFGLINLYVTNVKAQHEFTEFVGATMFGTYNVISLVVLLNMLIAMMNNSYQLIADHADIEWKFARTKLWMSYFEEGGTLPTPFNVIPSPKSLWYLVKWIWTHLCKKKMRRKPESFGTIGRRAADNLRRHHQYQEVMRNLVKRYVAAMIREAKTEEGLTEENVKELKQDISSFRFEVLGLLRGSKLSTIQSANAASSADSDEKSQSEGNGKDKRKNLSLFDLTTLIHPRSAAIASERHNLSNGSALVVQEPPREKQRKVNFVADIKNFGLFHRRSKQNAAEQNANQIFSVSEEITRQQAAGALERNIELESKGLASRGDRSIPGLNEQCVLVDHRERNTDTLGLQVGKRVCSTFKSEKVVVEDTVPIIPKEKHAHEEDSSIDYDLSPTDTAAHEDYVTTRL

[21] = molecular target: Dual specificity tyrosine-phosphorylation-regulated kinase 1A (Rattus norvegicus, UniProt Q63470); type: biochemical, Homo sapiens
[22] = NIH-3T3 fibroblast cytotoxicity, dose response, cytotoxicity control, cell-based, fluorescence, Alamar Blue, secondary assay (AID 2327); type: functional;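 further: NIH-3T3 mouse fibroblasts cultured with fluconazole at 8 µg/mL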
[23] = molecular target: T4, Aminopeptidase N (Plasmodium falciparum FcB1/Columbia, UniProt O96935); experiment: malaria alanyl aminopeptidase activity blockers – biochemical, fluorogenic H-Leu-NHMec substrate, 1536-well (AID 1445); set-up: species or system Plasmodium falciparum 3D7, 3D7
T4 sequence (O96935 whole entry): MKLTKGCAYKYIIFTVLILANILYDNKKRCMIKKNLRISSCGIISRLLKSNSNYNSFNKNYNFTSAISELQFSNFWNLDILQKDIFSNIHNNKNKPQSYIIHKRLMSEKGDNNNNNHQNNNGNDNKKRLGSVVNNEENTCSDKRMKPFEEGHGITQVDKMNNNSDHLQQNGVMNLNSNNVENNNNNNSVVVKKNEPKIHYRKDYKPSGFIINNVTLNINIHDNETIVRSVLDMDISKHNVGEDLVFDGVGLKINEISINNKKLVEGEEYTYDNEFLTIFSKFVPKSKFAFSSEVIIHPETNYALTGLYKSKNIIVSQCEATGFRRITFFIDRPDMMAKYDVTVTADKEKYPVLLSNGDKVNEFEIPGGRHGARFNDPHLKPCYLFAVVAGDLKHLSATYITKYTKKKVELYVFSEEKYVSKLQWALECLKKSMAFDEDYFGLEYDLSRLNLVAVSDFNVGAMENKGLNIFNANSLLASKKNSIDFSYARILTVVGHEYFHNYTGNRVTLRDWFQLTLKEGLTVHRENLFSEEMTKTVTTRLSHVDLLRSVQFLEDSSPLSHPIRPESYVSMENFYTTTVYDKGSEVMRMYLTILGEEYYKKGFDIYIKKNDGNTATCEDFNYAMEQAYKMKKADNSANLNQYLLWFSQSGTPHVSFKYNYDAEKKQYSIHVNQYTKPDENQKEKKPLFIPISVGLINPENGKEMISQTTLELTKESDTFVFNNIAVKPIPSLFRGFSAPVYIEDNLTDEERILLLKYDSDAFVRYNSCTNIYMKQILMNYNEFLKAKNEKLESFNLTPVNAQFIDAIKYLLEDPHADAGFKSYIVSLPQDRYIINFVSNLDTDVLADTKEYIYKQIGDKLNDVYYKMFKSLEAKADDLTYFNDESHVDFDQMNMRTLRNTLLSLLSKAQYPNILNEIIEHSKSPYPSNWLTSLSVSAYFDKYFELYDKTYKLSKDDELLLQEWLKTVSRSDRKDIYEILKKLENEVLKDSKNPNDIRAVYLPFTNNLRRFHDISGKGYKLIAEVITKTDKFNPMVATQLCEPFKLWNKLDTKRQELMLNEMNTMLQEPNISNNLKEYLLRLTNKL

Sequence of Melanocortin receptor 4 (P32245 whole entry, the tested form may be a part): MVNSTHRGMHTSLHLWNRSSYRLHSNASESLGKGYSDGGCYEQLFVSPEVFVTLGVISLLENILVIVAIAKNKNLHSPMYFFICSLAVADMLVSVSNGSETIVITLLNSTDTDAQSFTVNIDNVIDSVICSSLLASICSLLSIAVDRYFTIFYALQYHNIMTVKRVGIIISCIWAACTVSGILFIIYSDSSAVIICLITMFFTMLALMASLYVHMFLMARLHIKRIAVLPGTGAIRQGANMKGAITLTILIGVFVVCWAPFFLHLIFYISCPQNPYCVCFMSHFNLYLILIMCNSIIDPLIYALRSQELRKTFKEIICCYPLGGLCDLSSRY
T2 sequence (P11940 whole entry, the tested form may be a part): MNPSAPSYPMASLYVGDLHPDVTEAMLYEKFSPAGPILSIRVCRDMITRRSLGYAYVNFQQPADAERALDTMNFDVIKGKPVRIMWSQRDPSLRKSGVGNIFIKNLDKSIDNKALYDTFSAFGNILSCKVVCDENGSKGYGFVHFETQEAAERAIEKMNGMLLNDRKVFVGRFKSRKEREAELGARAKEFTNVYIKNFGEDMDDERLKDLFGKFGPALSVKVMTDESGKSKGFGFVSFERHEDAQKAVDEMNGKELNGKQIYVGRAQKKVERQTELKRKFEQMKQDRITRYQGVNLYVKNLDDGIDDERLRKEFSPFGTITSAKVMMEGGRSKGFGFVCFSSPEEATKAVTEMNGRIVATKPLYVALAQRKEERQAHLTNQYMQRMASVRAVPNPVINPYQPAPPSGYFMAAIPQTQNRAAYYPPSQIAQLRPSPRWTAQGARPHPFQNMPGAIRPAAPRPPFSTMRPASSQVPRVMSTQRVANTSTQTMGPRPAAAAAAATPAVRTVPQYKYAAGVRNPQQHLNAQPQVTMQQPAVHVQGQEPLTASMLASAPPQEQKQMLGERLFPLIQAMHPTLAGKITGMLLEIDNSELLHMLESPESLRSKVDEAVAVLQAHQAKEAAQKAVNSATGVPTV
Sequence of Steroidogenic factor 1 (Q13285 whole entry): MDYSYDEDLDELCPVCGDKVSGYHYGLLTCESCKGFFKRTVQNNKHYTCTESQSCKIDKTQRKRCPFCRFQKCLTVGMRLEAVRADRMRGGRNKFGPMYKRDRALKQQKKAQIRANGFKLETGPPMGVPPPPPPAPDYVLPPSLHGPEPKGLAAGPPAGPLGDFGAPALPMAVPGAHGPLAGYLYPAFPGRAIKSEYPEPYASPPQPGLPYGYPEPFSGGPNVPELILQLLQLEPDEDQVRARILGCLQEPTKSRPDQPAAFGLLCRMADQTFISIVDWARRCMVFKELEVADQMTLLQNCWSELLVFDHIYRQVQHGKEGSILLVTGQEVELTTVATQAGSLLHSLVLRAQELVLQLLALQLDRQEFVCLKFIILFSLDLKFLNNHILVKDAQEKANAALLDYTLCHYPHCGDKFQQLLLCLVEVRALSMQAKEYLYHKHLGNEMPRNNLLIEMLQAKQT
Sequence of Protein Wnt-3a (P27467 whole entry): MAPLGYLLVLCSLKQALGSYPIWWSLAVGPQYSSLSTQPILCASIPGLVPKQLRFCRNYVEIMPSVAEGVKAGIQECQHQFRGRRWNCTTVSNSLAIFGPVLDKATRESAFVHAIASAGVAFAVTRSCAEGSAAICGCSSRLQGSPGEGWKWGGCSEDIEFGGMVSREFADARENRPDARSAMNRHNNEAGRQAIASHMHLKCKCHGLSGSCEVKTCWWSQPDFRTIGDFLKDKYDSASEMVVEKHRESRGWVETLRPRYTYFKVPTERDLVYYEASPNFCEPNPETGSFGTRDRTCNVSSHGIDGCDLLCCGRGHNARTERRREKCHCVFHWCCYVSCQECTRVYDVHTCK
Sequence of Nonstructural protein 1 (Q194T2 whole entry): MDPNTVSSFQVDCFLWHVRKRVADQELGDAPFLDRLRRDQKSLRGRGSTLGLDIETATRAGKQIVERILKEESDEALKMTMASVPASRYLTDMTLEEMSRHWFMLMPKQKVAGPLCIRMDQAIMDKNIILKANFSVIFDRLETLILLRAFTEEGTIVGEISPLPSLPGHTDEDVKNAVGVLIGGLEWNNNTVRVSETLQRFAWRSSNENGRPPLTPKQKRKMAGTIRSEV
Sequence of Nuclear receptor subfamily 5 group A member 2 (O00482 whole entry): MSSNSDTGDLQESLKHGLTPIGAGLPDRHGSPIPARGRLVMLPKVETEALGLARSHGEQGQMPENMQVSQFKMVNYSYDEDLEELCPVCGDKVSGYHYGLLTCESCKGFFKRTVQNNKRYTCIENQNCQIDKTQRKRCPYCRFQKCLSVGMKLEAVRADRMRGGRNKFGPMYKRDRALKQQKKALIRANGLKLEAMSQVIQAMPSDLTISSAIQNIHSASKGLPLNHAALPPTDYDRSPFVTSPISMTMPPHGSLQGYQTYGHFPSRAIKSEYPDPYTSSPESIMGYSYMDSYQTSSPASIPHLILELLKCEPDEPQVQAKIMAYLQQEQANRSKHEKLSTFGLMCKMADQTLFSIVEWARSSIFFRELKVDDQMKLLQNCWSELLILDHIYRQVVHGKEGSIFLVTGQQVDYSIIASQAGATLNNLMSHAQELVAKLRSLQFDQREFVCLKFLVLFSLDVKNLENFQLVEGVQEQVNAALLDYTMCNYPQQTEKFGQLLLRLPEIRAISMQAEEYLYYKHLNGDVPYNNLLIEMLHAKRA

## COc1cc(C(=O)Nc2ccccc2C2COC(=O)C2=N)cc(OC)c1OC (stereo not drawn)
[1]
  IC50: 35.9 µM (inactive)
[2]
  IC50: 4.53 µM (active)
[3]
  IC50: 8.25 µM (active)

## CC(=O)c1c(C)[nH]c(C(=O)OCC(=O)Nc2ccc(C)cc2[N+](=O)[O-])c1C
[4]
  IC50: 0.245 µM (active)
[5]
  AC50: 1.12 µM (active)
[6]
  IC50: > 80 µM (inactive)

## O=C(CCS(=O)(=O)c1ccccc1)Nc1nc(-c2ccccn2)cs1
[7]
  CC50: 22.5 µM (active)
[8]
  AC50: 118 µM (active)
[9]
  IC50: 4.53 µM (active)
[10]
  CC50: > 20 µM (active)
[11]
  IC50: 35.8 µM (inactive)
[12]
  CC50: 10.6 µM (active)
[13]
  IC50: 15.7 µM (active)

## Cc1ccc[n+](CC(=O)c2ccc(Cl)cc2)c1
[14]
  IC50: 0.946 µM (active)
[15]
  IC50: 1.82 µM (active)

## CC(=O)Nc1cc(-c2ccccc2N(C)C)cn2c(-c3ccc(F)c(Cl)c3)cnc12
[16]
  EC50: > 89.2 µM (inactive)
[17]
  IC50: > 66 µM (inactive)
[18]
  IC50: > 66 µM (inactive)

## COc1ccc(-c2cc(NC=O)c3ncc(-c4ccccc4)n3c2)cc1OC
[16]
  EC50: > 89.2 µM (inactive)
[11]
  IC50: > 79 µM (inactive)

## N#C/C(=N\Nc1cccc([N+](=O)[O-])c1)C(=O)c1ccc(Br)cc1
[19]
  EC50: 4.48 µM (active)
[20]
  EC50: 3.35 µM (active)
[14]
  IC50: 3.36 µM (active)
[5]
  AC50: 6.82 µM (active)
[21]
  AC50: 2.91 µM (active)
[15]
  IC50: 9.02 µM (active)
[22]
  EC50: 56.9 µM (active)
[23]
  IC50: 40.5 µM (active)
